Experimental data from ChEMBL document CHEMBL4382262, “Structurally Simple, Readily Available Peptidomimetic 1-Benzyl-5-methyl-4-( n-octylamino)pyrimidin-2(1 H)-one Exhibited Efficient Cardioprotection in a Myocardial Ischemia (MI) Mouse Model” (J Med Chem, 2018).
Active and inactive are the calls of the source. The rule behind the calls is not given here.

How the values were obtained:
Mus musculus [1] = assay: Cardioprotective activity in C57BL mouse model of left anterior descending coronary artery ligation-induced myocardial ischemia assessed as reduction in leukocyte infiltration at 0.3 mg/kg, iv treated 1 hr after left anterior descending coronary artery ligation and measured after 7 days post LAD by hematoxylin/eosin staining based light microscopy; format: functional, organism-based
[2] = target: T1, Toll-like receptor 4 (Rattus norvegicus) (UniProt Q9QX05); assay: Inhibition of TLR4 in Sprague-Dawley rat cardiomyocytes assessed as reduction in hypoxia-induced creatine kinase levels at 20 uM preincubated for 1 hr followed by induction of hypoxia measured after 3 hrs by NADP reduction based colorimetric analysis; format: cell-based
T1 sequence (whole entry): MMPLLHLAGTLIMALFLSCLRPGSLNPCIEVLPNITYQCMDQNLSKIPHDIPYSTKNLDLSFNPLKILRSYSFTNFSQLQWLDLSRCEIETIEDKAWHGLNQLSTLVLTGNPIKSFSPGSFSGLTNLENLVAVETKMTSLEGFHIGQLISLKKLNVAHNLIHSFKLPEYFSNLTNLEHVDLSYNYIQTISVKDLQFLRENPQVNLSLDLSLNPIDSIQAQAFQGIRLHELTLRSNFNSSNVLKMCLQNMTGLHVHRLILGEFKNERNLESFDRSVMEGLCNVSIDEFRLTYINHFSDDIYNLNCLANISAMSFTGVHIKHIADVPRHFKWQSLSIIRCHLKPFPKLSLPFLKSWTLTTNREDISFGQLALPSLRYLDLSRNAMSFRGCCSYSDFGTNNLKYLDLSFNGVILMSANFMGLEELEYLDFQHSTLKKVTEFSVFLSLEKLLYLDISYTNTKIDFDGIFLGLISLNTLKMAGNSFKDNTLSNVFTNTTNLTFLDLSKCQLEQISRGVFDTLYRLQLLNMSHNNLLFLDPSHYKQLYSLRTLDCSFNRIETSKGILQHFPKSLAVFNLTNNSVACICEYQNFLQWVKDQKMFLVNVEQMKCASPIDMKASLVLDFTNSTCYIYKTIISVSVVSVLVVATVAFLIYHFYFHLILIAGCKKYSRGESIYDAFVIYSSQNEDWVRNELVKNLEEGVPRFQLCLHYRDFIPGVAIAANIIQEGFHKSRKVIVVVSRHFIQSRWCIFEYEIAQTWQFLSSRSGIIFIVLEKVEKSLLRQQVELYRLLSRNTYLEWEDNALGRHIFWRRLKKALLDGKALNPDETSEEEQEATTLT

Mus musculus [3] = assay: Cardioprotective activity in C57BL mouse model of left anterior descending coronary artery ligation-induced myocardial ischemia assessed as reduction in heart infarct size at 0.3 mg/kg, iv treated 1 hr after left anterior descending coronary artery ligation and measured after 24 hrs post LAD; format: functional, organism-based
[4] = Reduction in hypoxia-induced TLR4 mRNA expression in Sprague-Dawley rat cardiomyocytes at 20 uM preincubated for 1 hr followed by hypoxia for 3 hrs by RT-qPCR analysis relative to untreated control; format: functional, Cardiac muscle cell
[5] = target: T1, Toll-like receptor 4 (Rattus norvegicus); assay: Inhibition of TLR4 in Sprague-Dawley rat cardiomyocytes assessed as reduction in hypoxia-induced LDH levels by measuring NADH levels at 20 uM preincubated for 1 hr followed by induction of hypoxia measured after 3 hrs by colorimetric analysis; format: cell-based
Mus musculus [6] = assay: Cardioprotective activity in C57BL mouse model of left anterior descending coronary artery ligation-induced myocardial ischemia assessed as reduction in LDH […] levels at 0.3 mg/kg, iv pretreated for 1 hr followed by left anterior descending coronary artery ligation; format: functional, organism-based
Mus musculus [7] = assay: Cardioprotective activity in C57BL mouse model of left anterior descending coronary artery ligation-induced myocardial ischemia assessed as reduction in serum LDH levels at 0.3 mg/kg, iv treated 1 hr after by left anterior descending coronary artery ligation and measured after 7 days post LAD; format: functional, organism-based
[8] = Hepatotoxicity in C57BL mouse model of left anterior descending coronary artery ligation-induced myocardial ischemia assessed as effect on serum AST levels at 0.05 to 1 mg/kg, iv pretreated for 1 hr followed by left anterior descending coronary artery ligation; format: toxicity, organism-based; details: in vivo
Mus musculus [9] = assay: Cardioprotective activity in C57BL mouse model of left anterior descending coronary artery ligation-induced myocardial ischemia assessed as reduction in creatine kinase levels at 0.3 mg/kg, iv pretreated for 1 hr followed by left anterior descending coronary artery ligation; format: functional, organism-based
Mus musculus [10] = assay: Cardioprotective activity in C57BL mouse model of left anterior descending coronary artery ligation-induced myocardial ischemia assessed as reduction in heart infarct size at 0.3 mg/kg, iv pretreated for 1 hr followed by left anterior descending coronary artery ligation; format: functional, organism-based

With `CCCCCCCCNc1nc(=O)n(Cc2ccccc2)cc1C` the Activity (Mus musculus [1]) was “Active”, the inhibition [2] was “Active” and the Activity (Mus musculus [3]) was “inactive”. The “fold change (FC)” value [4] was 3.1, the inhibition [5] was “Active” and the Activity (Mus musculus [6]) was “Active”. For the same molecule, the Activity (Mus musculus [7]) was “Active”, the Activity [8] was “Non-Toxic” and the Activity (Mus musculus [9]) was “Active”. The Activity (Mus musculus [10]) was “Active”.
